Results from US20240239790A1, “7-Morpholino-1,6-Naphthyridin-5-yl Derivatives and Pharmaceutical Compositions Thereof Useful as DNA-PK Inhibitor” (adMare Therapeutics Society, priority 2021, published 2024).
Like-named read-outs stand apart in the source and are kept apart here.

What was measured:
[1] = Microsomal Stability Assay, human liver microsomes; assay type: in vitro ADME
Protocol: (§1) Samples were then mixed and centrifuged. Supernatants were used for HPLC-MS/MS analysis. […] Peak areas corresponding to the test compound were recorded.

[2] = Pharmacokinetic study in mice (IV and PO), plasma; assay type: in vivo, mouse; settings: for AUC(0-t) / half-life / AUC(0-inf) / Cmax: female, C57BL/6; for AUC(0-t) / half-life / AUC(0-inf) / Cmax / AUC—% Extrap—obs / Cl_obs / Vz_obs: mouse plasma; for AUC(0-inf): read-out: AUCINF—obs; for Cmax: read-out: Cmax (5 min)
Protocol: Pharmacokinetic analysis of compounds was conducted following bolus intravenous (IV) or bolus oral (PO) gavage in mice. Female mice (C57BL/6) in the 17-26 g range were weighed, and then administered an individually prescribed dose volume based on body weight of formulated compound via the intravenous (IV; tail vein) or oral gavage (PO) route (IV 5 mL/kg; PO 10 mL/kg). At selected timepoints post administration, blood was collected into vials with anticoagulant, processed for plasma by centrifugation, and then kept frozen ([…]) until analysis.
The in-vivo study plasma samples were analyzed using Ultra Performance Liquid Chromatography (UPLC) with tandem mass spectrometry (MS/MS) detection in multiple reaction monitoring (MRM) mode. A generic bioanalytical method involving plasma sample extraction and cleanup by protein precipitation with acetonitrile was used followed by UPLC-MS/MS analysis.
A brief example of a generic bioanalytical UPLC-MS/MS method used for analysis of compounds in the in-vivo study plasma samples is as follows. Plasma samples were spiked with internal standard prior to extraction and cleanup by protein precipitation with ice cold acetonitrile containing 0.1% (v/v) ammonium hydroxide at a ratio of 3:1 (solvent:plasma) and centrifuged at 18213 rcf for 15 minutes at 4° C. to pellet precipitates. Aliquots of supernatants were transferred to a 96-well plate and evaporated to dryness at 40° C. under a stream of nitrogen gas. Samples were reconstituted in 50:50 acetonitrile/10 mM ammonium acetate buffer pH 8, mixed thoroughly and analyzed using Ultra Performance Liquid Chromatography (UPLC) with tandem mass spectrometry (MS/MS) detection in multiple reaction monitoring (MRM) mode. Matrix-matched calibration standards and quality control (QC) samples were prepared in naïve C57Bl/6 mouse plasma. The UPLC column used was Waters Acquity UPLC BEH C18 1.7 um, 2.1 mm×50 mm (with guard column). The UPLC mobile phase consisted of: Mobile phase A: 10 mM ammonium acetate in Water pH 8, and Mobile phase B: Acetonitrile. Separation was accomplished with a linear gradient of 5% mobile phase B to 95% mobile phase B in 2 min, and a flow rate of 0.35 mL/min. The MS/MS data acquisition was accomplished using 3 MRM Transitions in ESI+ mode. Parent ion mass 508.37 m/z-to-Daughter ions (m/z) 117.05, 232.13 and 270.22. The quantitation of concentrations in test samples was achieved by matrix-matched calibration with normalization using an internal standard. Data acquisition and analysis were performed using Waters MassLynx software with TargetLynx application manager.
Estimation of PK parameters was performed using independent noncompartmental model method by PHOENIX WinNonlin software.

[3] = molecular target: T1, DNA-PK phosphorylation at Serine 2056 (Homo sapiens, UniProt P78527); assay: Cellular Assay for Inhibition of DNA-PK Phosphorylation at Serine 2056 in FaDu cells (sandwich ELISA, neocarzinostatin); assay type: cell-based; settings: pSer2056 DNA-PK, neocarzinostatin 1 μg/mL, Table 1
T1 construct: FaDu cells were purchased from ATCC; host or cells: FaDu
Procedure, shortened: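 pSer2056 and total DNA-PK were measured by sandwich ELISA in BCA-normalised FaDu lysates. Cells had 1 h compound exposure (0.3% DMSO), then 2 h with 1 μg/mL final neocarzinostatin. IC50 was fitted (variable slope) to % inhibition scaled against NCS-stimulated and DMSO-only controls.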

[4] = Hepatocyte Stability Assay, mouse hepatocytes; assay type: in vitro ADME
Procedure, shortened: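 Pooled cryopreserved hepatocytes (male CD-1 mice, ≥10; mixed-gender human donors, ≥10) at 0.7 million viable cells/mL in Krebs-Heinslet buffer pH 7.3, compound 1 uM, ≤0.01% DMSO. Incubated at 37° C./5% CO2 up to 2 h, acetonitrile-quenched; parent peak area by HPLC-MS/MS.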

[5] = Microsomal Stability Assay, mouse liver microsomes; assay type: in vitro ADME
Protocol: as §1

- microsomal CLint at 0.1 uM ([1]; both sexes, pH 7.4, human liver microsomes 0.1 mg/mL, 0.1 uM compound): < 116 µL/min/mg
- Microsomal Stability Human % rem. 60 min ([1]; human liver microsomes, 60 min): G (% remaining = 50-75%)
- AUC(0-t) ([2]; IV, 3 mg/kg): 1630 ng·h/mL
- half-life ([2]; IV, 3 mg/kg): 4.63 h
- AUC(0-inf) ([2]; IV, 3 mg/kg): 2270 ng·h/mL
- Cmax ([2]; IV, 3 mg/kg): 611 ng/mL
- AUC(0-t) ([2]; PO, 10 mg/kg): 5680 ng·h/mL
- half-life ([2]; PO, 10 mg/kg): 5.4 h
- AUC(0-inf) ([2]; PO, 10 mg/kg): 6070 ng·h/mL
- Cmax ([2]; PO, 10 mg/kg): 549 ng/mL
- AUC—% Extrap—obs ([2]; IV, 3 mg/kg): 28.28%
- Cl_obs ([2]; IV, 3 mg/kg): 22.0313 mL/min/kg
- Vz_obs ([2]; IV, 3 mg/kg): 8.82488 L/kg
- AUC—% Extrap—obs ([2]; PO, 10 mg/kg): 6.56%
- Cl_obs ([2]; PO, 10 mg/kg): 27.4375 mL/min/kg
- Vz_obs ([2]; PO, 10 mg/kg): 12.83577 L/kg
- F ([2]; mouse, PO, 10 mg/kg): 105%
- IC50 [3]: < 100 nM
- hepatocyte CLint at 1 uM ([4]; male, CD-1, cryopreserved hepatocytes, pH 7.3, mouse hepatocytes 0.7 million cells per mL, 1 uM compound): < 8.2 µL/min/1e6 cells
- Hepatocyte Stability Mouse % rem. 120 min ([4]; mouse hepatocytes, 120 min): H (% remaining = 75-100%)
- microsomal CLint at 0.1 uM ([5]; male, CD-1, pH 7.4, mouse liver microsomes 0.1 mg/mL, 0.1 uM compound): > 116 µL/min/mg
- Microsomal Stability Mouse % rem. 60 min ([5]; mouse liver microsomes, 60 min): F (% remaining = 25-50%)
SMILES: CN1CCN(CCOc2cnc(N[C@H]3CC[C@@H](Oc4nc(N5CCOCC5)cc5ncccc45)CC3)nc2)CC1 [Compound 69, 5-(2-(4-Methylpiperazin-1-yl)ethoxy)-N-((1s,4s)-4-((7-morpholino-1,6-naphthyridin-5-yl)oxy)cyclohexyl)pyrimidin-2-amine]
